From ChEMBL document CHEMBL1201862, “PubChem BioAssay data set” (2004)
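Exposure lasted 48 hours, with cells grown in 96-well plates and compounds tested at five concentrations. Here, GI50 denotes the concentration required for 50% inhibition of growth.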 Active and inactive are the calls of the source. Rule as the data show it: active = GI50 up to about 1.1 µM and inactive = higher.

Experiments:
Test in all cases: growth of human tumour cells (NCI), 48 h
[1] = test system: ACHN
[2] = test system: CAKI-1
[3] = test system: DU-145
[4] = test system: EKVX
[5] = test system: HCT-15
[6] = test system: HOP-62
[7] = test system: HOP-92
[8] = test system: M14
[9] = test system: MDA-N
[10] = test system: NCI-H23
[11] = test system: NCI/ADR-RES
[12] = test system: OVCAR-3
[13] = test system: OVCAR-4
[14] = test system: OVCAR-8
[15] = test system: PC-3
[16] = test system: SF-295
[17] = test system: SNB-75
[18] = test system: SW-620
[19] = test system: UACC-62
[20] = test system: RXF 393

| Compound | GI50 [1] | GI50 [2] | GI50 [3] | GI50 [4] | GI50 [5] [µM] | GI50 [6] | GI50 [7] | GI50 [8] | GI50 [9] | GI50 [10] | GI50 [11] | GI50 [12] | GI50 [13] | GI50 [14] | GI50 [15] | GI50 [16] | GI50 [17] | GI50 [18] | GI50 [19] | GI50 [20] |
| --- | --- | --- | --- | --- | --- | --- | --- | --- | --- | --- | --- | --- | --- | --- | --- | --- | --- | --- | --- | --- |
| CC1(C)CC2=NOS3=C2C(=NO3)C1c1ccccn1 (stereo not drawn) | 74.8 µM (inactive) | > 100 µM (inactive) | > 100 µM (inactive) | > 100 µM (inactive) | 20 | > 100 µM (inactive) | > 100 µM (inactive) | 40.7 µM (inactive) | 30.9 µM (inactive) | > 100 µM (inactive) | > 100 µM (inactive) | 31 µM (inactive) | > 100 µM (inactive) | 39.5 µM (inactive) | > 100 µM (inactive) | > 100 µM (inactive) | > 100 µM (inactive) | 69.5 µM (inactive) | 44.1 µM (inactive) |  |
| CN1CCC(O)(C(C)(C)C)CC1 | > 100 µM (inactive) | > 100 µM (inactive) | > 100 µM (inactive) | > 100 µM (inactive) | > 100 | > 100 µM (inactive) |  | > 100 µM (inactive) | > 100 µM (inactive) | > 100 µM (inactive) | > 100 µM (inactive) | > 100 µM (inactive) | > 100 µM (inactive) | > 100 µM (inactive) | > 100 µM (inactive) | > 100 µM (inactive) | > 100 µM (inactive) | > 100 µM (inactive) | > 100 µM (inactive) | > 100 µM (inactive) |
| C=CC[C@H](O)[C@@](NC(=O)OCc1ccccc1)(Sc1ccc(C)cc1)C(F)(F)F | > 100 µM (inactive) | 24.7 µM (inactive) | 35.7 µM (inactive) | 30.6 µM (inactive) | 24.9 | 28.9 µM (inactive) | 38.6 µM (inactive) | 20.7 µM (inactive) | 19.2 µM (inactive) | 24.5 µM (inactive) | 31.1 µM (inactive) | 21.8 µM (inactive) | 28.2 µM (inactive) | 16.9 µM (inactive) | 29.8 µM (inactive) | 21.9 µM (inactive) |  | 32.1 µM (inactive) | 30.7 µM (inactive) | 23.3 µM (inactive) |
| Cc1ccc(N2C(=O)C3c4[nH]c5ccc(C)cc5c4C4CCC(C(C)(C)C)CC4C3C2=O)cc1 (stereo not drawn) |  | 17.6 µM (inactive) | 17.8 µM (inactive) | 10.8 µM (inactive) | 49.8 | 10.8 µM (inactive) | 16.1 µM (inactive) | 31 µM (inactive) | 21 µM (inactive) | 16.6 µM (inactive) | 19.5 µM (inactive) | 12.1 µM (inactive) | 6.27 µM (inactive) | 9.62 µM (inactive) | 16.6 µM (inactive) | 15.2 µM (inactive) |  | 12.1 µM (inactive) | 16.2 µM (inactive) |  |
| CO/N=C(/C(=O)OC)c1ccccc1COc1ccccc1C(F)(F)F | 83.6 µM (inactive) | 20.1 µM (inactive) | 37 µM (inactive) | 11.3 µM (inactive) | 33.3 | 63.8 µM (inactive) | 30.2 µM (inactive) | 26.9 µM (inactive) | 28.1 µM (inactive) | 22.1 µM (inactive) | 29.3 µM (inactive) | 23.8 µM (inactive) | 7.21 µM (inactive) | > 100 µM (inactive) | 33.5 µM (inactive) | 10.7 µM (inactive) |  |  | 26.3 µM (inactive) | > 100 µM (inactive) |
| O=C(Nc1ccccc1)c1cc(S(=O)(=O)N2CCNNC2=O)c(S)cc1Cl | > 100 µM (inactive) | > 100 µM (inactive) | 90.4 µM (inactive) | > 100 µM (inactive) | 59.2 |  | 47.3 µM (inactive) | > 100 µM (inactive) | > 100 µM (inactive) |  | 34.7 µM (inactive) | > 100 µM (inactive) | > 100 µM (inactive) | 32.3 µM (inactive) | > 100 µM (inactive) | > 100 µM (inactive) | > 100 µM (inactive) | 33 µM (inactive) | > 100 µM (inactive) | 21.3 µM (inactive) |
| O=C(Nc1ccccc1)N1N=C(c2ccccc2)C1c1ccccc1 (stereo not drawn) | 22 µM (inactive) | 30.2 µM (inactive) | > 100 µM (inactive) | 40.4 µM (inactive) | 33.8 |  | 23.4 µM (inactive) | 20 µM (inactive) | 27.4 µM (inactive) | 23.3 µM (inactive) | 26.4 µM (inactive) | 20.7 µM (inactive) | 41.1 µM (inactive) | 33.8 µM (inactive) | 18.8 µM (inactive) | 24.3 µM (inactive) | 15.8 µM (inactive) | 35.8 µM (inactive) | 20.2 µM (inactive) | 17.3 µM (inactive) |
| CCOC(=O)C1=CN2C(=N[C@H]3CCCC[C@@H]32)NC1=O | > 100 µM (inactive) | > 100 µM (inactive) | > 100 µM (inactive) | > 100 µM (inactive) | > 100 |  | > 100 µM (inactive) | > 100 µM (inactive) | > 100 µM (inactive) | > 100 µM (inactive) | > 100 µM (inactive) | > 100 µM (inactive) | > 100 µM (inactive) | > 100 µM (inactive) | > 100 µM (inactive) | > 100 µM (inactive) | > 100 µM (inactive) | > 100 µM (inactive) | > 100 µM (inactive) |  |
| C=C1C(NC)CCC23CC24CCC2(C)C(C(C)=O)C(O)CC2(C)C4CCC13 (stereo not drawn) | > 100 µM (inactive) | > 100 µM (inactive) | > 100 µM (inactive) | > 100 µM (inactive) | > 100 |  | > 100 µM (inactive) | > 100 µM (inactive) | 63.7 µM (inactive) | > 100 µM (inactive) | > 100 µM (inactive) | > 100 µM (inactive) | > 100 µM (inactive) | > 100 µM (inactive) | 78 µM (inactive) | 28.4 µM (inactive) | 49.4 µM (inactive) | > 100 µM (inactive) | > 100 µM (inactive) |  |
| Nc1cc(CO)cc(Nc2c3ccccc3nc3ccccc23)c1 | 17.2 µM (inactive) | 17.5 µM (inactive) | 27.3 µM (inactive) | 16.8 µM (inactive) | 17.6 | 14.7 µM (inactive) |  | 17.3 µM (inactive) | 20.6 µM (inactive) | 15.9 µM (inactive) | 17.7 µM (inactive) | 18.2 µM (inactive) | 16 µM (inactive) | 15.9 µM (inactive) | 15.5 µM (inactive) | 10.9 µM (inactive) | 15.8 µM (inactive) | 12.8 µM (inactive) | 17.4 µM (inactive) | 16.8 µM (inactive) |
| CN1C(C(=O)Nc2ccccn2)=C(O)c2ccccc2S1(=O)=O [PIROXICAM] | > 100 µM (inactive) | > 100 µM (inactive) | > 100 µM (inactive) | > 100 µM (inactive) | > 100 | > 100 µM (inactive) |  | > 100 µM (inactive) | > 100 µM (inactive) | > 100 µM (inactive) | > 100 µM (inactive) | > 100 µM (inactive) | > 100 µM (inactive) | > 100 µM (inactive) | > 100 µM (inactive) | > 100 µM (inactive) | > 100 µM (inactive) | > 100 µM (inactive) | > 100 µM (inactive) | > 100 µM (inactive) |
